In publication PMC12751141, “Disrupting α-Synuclein–ClpP interaction restores mitochondrial function and attenuates neuropathology in Parkinson’s disease models” (Molecular Neurodegeneration, 2025):

Assays:
FITC-αSyn (human) = FITC-αSyn (human) (UniProt P37840); test: MST
[1] = biological target: human recombinant αSyn pre-formed fibrils (PFF) (Type 1) (human); test: MST
αSyn–ClpP binding = test: Immunoprecipitation of recombinant ClpP and αSyn in vitro; set-up: species or system human; details: recombinant ClpP pre-incubated with peptide 30 min before αSyn; anti-ClpP IP; 3 independent experiments
Description: The human recombinant WT- (#S-1001-2), A53T- (#S-1001-2), ΔNAC- (#S-1015-1) and ΔC- (#S-1012-1) αSyn and FITC-αSyn (S-1113-2) were purchased from rPeptide. The human recombinant αSyn pre-formed fibrils (PFF) (Type 1) (SPR-322) and ATTO-594-PFF (SPR-322B-A594) were purchased from StressMarq Biosciences (Bioactivity has been widely validated via various approaches, e.g. TEM, ThT).
(§1) Cells or tissues were lysed in total lysis buffer (50mM Tris-HCl, pH 7.5, 150mM NaCl, 1% Triton X-100, and protease inhibitor). Total protein lysates (800 µg) were incubated with the indicated antibodies overnight at 4 °C followed by the addition of protein A/G beads (sc-2003, Santa Cruz) for 2 h at 4 °C. Various recombinant αSyn and Clpp (500 ng) were incubated in in vitro interaction buffer (20mM Tris-HCl pH 7.5, 100mM KCl, 2mM MgCl2 and 0.1% Triton-X100) for 30 min at room temperature, and then incubated with indicated antibodies overnight at 4 °C followed by the addition of protein A/G beads for 2 h at 4 °C. The beads with immuno-precipitates were pulled down at 4000 g and washed four times with total lysis buffer/in vitro interaction buffer in the presence of 0.1% Triton X-100 and were analyzed by western blot analysis.

ClpP–αSyn interaction = test: Co-immunoprecipitation of ClpP with αSyn constructs in HEK293T cell lysates; format: cell-based
Description: Myc-tagged WT- and A53T- αSyn, Myc-tagged ClpP, and Flag-tagged WT- and S153A- ClpP plasmids were self-constructed as previously described (Ref). To construct truncated-αSyn plasmids, pcDNA3.1(-) was digested with BsteII and XbaI, and ΔN-, ΔC- and ΔNAC-αSyn was PCR-amplified using self-designed primers and inserted into the plasmid backbone. Cells were transfected with TransIT-2020 (Mirus Bio, LLC) following the manufacturer’s protocol.
as §1
Shown are representative blots of 3 independent experiments. Quantification of the ratio of αSyn over ClpP (pull-down) (n = 4, two-tailed Student’s t test, data are mean ± SEM).

ClpP (HEK293T cells) = test: ClpP protein level, western blot, HEK293T cells; format: cell-based; details: WT or A53T αSyn overexpression; 30 min pretreatment; n = 4–5 (CS1: n = 4)
ClpP (SH-SY5Y cells) = test: ClpP protein level, western blot, SH-SY5Y cells; format: cell-based; details: WT or A53T αSyn overexpression; 30 min pretreatment; n = 4–5 (CS1: n = 4)
[2] = test system: αSyn oligomerization (VN/VC-αSyn), SH-SY5Y cells; test: BiFC split-Venus αSyn oligomerization in SH-SY5Y cells; format: cell-based
From the text: To construct truncated-αSyn plasmids, pcDNA3.1(-) was digested with BsteII and XbaI, and ΔN-, ΔC- and ΔNAC-αSyn was PCR-amplified using self-designed primers and inserted into the plasmid backbone. Cells were transfected with TransIT-2020 (Mirus Bio, LLC) following the manufacturer’s protocol.
(§2) The bimolecular fluorescence was examined 24-hour after transfection (n = 3, one-way ANOVA with Tukey’s post-hoc test, scale bar = 30 μm). (D) Quantification of the concentration (ng/ml) of extracellular αSyn monomer and oligomer, and intracellular αSyn oligomer in Tet-inducible SH-SY5Y cells that were pre-treated with TAT or CS2 peptide 30-minute before adding doxycycline (Dox) to induce αSyn expression. The concentration of αSyn species was determined by ELISA (n = 4, one-way ANOVA with Tukey’s post-hoc test; data are mean ± SEM). (E) Representative images of Mito-SOX staining in SH-SY5Y cells that were pre-treated with TAT or CS2 peptide and transfected with split Venus-αSyn vectors. Mitochondrial ROS production was determined by Mito-SOX staining after 24-hour transfection (n = 4, two-tailed Student’s t test, scale bar = 30 μm).
The bimolecular fluorescence was examined 24-hour after the transfection and quantitated (n = 14 areas/group, one-way ANOVA with Tukey’s post-hoc test, data are mean ± SEM).

SH-SY5Y cells = test: Mitochondrial ROS (Mito-SOX) in SH-SY5Y cells; format: cell-based; details: SH-SY5Y expressing VN/VC-αSyn (CS1: WT αSyn); Mito-SOX 5 µM; vs TAT
Description: Cells cultured on coverslips or 24-well plates were washed with DPBS and then incubated with 5 µM Mito-SOX™ Red (Invitrogen, M36008), a mitochondrial superoxide indicator, for 10 min at 37 °C. For cells cultured on coverslips, the images were visualized by microscope, and quantification of images was then carried out using NIH ImageJ software. At least 100 cells per group were counted in the analysis.
as §2

[3] = test system: αSyn PFF-seeded aggregation; test: αSyn ThT assay, PFF-seeded aggregation with recombinant ClpP; format: biochemical, human; details: ClpP 5/10 µM; αSyn PFF 1 µM; ThT 1 µM; PBS pH 7.4, 37 °C, 500 rpm, up to 48 h; ex 450 nm / em 485 nm; n = 4
Description: αSyn monomer (5µM) and PFF (1µM) were incubated with recombinant ClpP (5/10µM) and Thioflavin T (ThT) (1µM) in 100 µl PBS (pH 7.4) at 37 °C in a shaking incubator (500 rpm). ThT fluorescence was measured (excitation 450 nm, emission 485 nm) every 15 min up to 48 h.
Fig. 1 ClpP modulates αSyn tetramer and aggregates. […] (B) Western blot and quantification of αSyn tetramer/monomer ratio and oligomer/monomer ratio, upon intact cell DSG-crosslinking, in HEK293T cells overexpressing Myc-tagged WT αSyn with EV or Flag-tagged S153A-ClpP (n = 4–5, two-tailed Student’s t test). (C) Fluorescent images and quantification of αSyn aggregation in SH-SY5Y cells overexpressing EV or ClpP with vectors expressing Venus-N-αSyn (VN) and αSyn-C-Venus (VC) (n = 7, two-tailed Student’s t test, Scale bar = 10 μm). (D) Fluorescent images and quantification of αSyn aggregation in control knock-down (Consh) or ClpP knock-down (ClpPsh) SH-SY5Y cells overexpressing VN and VC (n = 4, two-tailed Student’s t test, Scale bar = 10 μm). (E) In vitro αSyn PFF (1µM) – seeded aggregation in the absence (control) or presence of ClpP (5/10µM) was monitored by thioflavin T (ThT) fluorescence (n = 4, two-tailed Student’s t test). […]

Substance: Decoy peptide CS2 (TAT-C6-GGVVTA) (from UniProt P04608 47-57)
- Kd (FITC-αSyn (human)): 7 µM
- Kd [1]: 4 µM

Substance: TAT-C6-GAVVTG [CS1, decoy peptide]
- αSyn–ClpP binding, recombinant (αSyn–ClpP binding): no effect
- ClpP binding to ΔC-αSyn (ClpP–αSyn interaction; HEK293T lysates, Flag-ClpP + Myc-ΔC-αSyn): not CS1, abolished the binding
- ClpP binding to ΔN-αSyn (ClpP–αSyn interaction; HEK293T lysates, Flag-ClpP + Myc-ΔN-αSyn): not CS1, abolished the binding
- ClpP binding to WT-αSyn (ClpP–αSyn interaction; HEK293T lysates, WT αSyn, CS2: 24-hour treatment): not CS1, abolished the binding
- αSyn-ClpP interaction, discussion summary (ClpP–αSyn interaction; in vitro or in vivo): no effect, either in vitro or in vivo
- ClpP protein level, HEK293T (ClpP (HEK293T cells)): failed to restore ClpP expression
- ClpP protein level, SH-SY5Y (ClpP (SH-SY5Y cells)): failed to restore ClpP expression
- BiFC signal / αSyn oligomerization ([2]; SH-SY5Y expressing VN/VC-αSyn, 24-hour after transfection): failed to restore ClpP expression (Fig. S4A and B), reduce αSyn oligomerization
- αSyn aggregation, discussion summary ([2]; in vitro or in vivo): no effect, either in vitro or in vivo
- mitochondrial ROS (Mito-SOX intensity) (SH-SY5Y cells): failed to restore ClpP expression (Fig. S4A and B), reduce αSyn oligomerization (Fig. S4C), or suppress ROS

Substance: recombinant ClpP protein: human recombinant ClpP obtained from Dr. Aaron Schimmer
- PFF-ThT fluorescence [3]: dose-dependent suppression of PFF-ThT fluorescence intensity
